The source made the active and inactive calls.
Columns and labels:
[1] = antimalarial activity against Dd2 parasites – SYBR Green fluorescence, erythrocytes, dry powder, set 2, dose response (AID 1159574); type: functional, cell-based
[2] = biological target: E3 ubiquitin-protein ligase UHRF1 (Homo sapiens, UniProt Q96T88); experiment: Counterscreen for inhibitors of 5-meCpG-binding domain protein 2 (MBD2): TRFRET-based biochemical high throughput dose response assay to identify inhibitors of binding of ubiquitin-like with PHD and ring finger domains 1 (UHRF1) to methylated oligonucleotide.
E3 ubiquitin-protein ligase UHRF1, sequence (Q96T88 whole entry, the tested form may be a part): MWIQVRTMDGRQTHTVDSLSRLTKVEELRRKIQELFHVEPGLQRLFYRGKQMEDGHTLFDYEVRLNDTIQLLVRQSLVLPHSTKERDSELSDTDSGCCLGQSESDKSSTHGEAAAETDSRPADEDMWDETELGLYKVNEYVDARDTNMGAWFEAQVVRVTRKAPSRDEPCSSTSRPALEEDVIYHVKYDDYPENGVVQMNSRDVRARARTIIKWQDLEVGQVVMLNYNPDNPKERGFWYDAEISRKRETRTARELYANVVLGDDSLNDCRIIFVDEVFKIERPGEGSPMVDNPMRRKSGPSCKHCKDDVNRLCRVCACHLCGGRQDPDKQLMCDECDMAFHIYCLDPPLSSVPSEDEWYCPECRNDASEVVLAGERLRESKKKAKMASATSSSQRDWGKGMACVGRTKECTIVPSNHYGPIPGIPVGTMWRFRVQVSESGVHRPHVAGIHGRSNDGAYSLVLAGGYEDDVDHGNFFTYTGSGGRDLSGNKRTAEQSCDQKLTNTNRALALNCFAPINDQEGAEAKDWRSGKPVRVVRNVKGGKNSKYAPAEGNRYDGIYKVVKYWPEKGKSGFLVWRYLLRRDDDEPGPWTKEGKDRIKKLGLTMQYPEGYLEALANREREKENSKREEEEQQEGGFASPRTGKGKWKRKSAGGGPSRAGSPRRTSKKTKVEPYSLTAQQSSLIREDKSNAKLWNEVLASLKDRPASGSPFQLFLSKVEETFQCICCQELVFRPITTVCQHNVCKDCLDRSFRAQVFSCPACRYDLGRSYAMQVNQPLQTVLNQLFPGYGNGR

[3] = fluconazole-exposed Candida albicans growth modulators – fluorescence, retest, confirmation (AID 2467); type: functional, cell-based
[4] = NIH-3T3 fibroblast cytotoxicity, dose response, cytotoxicity control, cell-based, fluorescence, Alamar Blue, secondary assay (AID 2327); type: functional;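 also: NIH-3T3 mouse fibroblasts cultured with fluconazole at 8 µg/mL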
Protein Tat = Protein Tat (Human immunodeficiency virus type 1 group M subtype B (isolate HXB2)(HIV-1), UniProt P04608); type: functional;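 also: tat binding to TAR RNA read out by fluorescence polarization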
Protein Tat, sequence (P04608 whole entry): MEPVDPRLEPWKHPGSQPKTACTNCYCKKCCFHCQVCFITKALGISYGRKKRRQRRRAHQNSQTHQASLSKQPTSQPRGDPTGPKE

[5] = rise of 2N DNA cells, HeLa – IC50, dose response (AID 1117349); type: functional, cell-based
[6] = rise of 4N DNA cells, HeLa – IC50, dose response (AID 1117351); type: functional, cell-based
cells = type: functional, cell-based; conditions: INS-1E
[7] = IC50 of insulin release inhibition, rat insulinoma INS-1E line, 5 mM glucose, cell-based (AID 1117331); type: functional
[8] = P. falciparum Dd2 growth inhibitors, dose response, SYBR Green, cherry-picked samples (AID 1159567); type: functional, cell-based
[9] = growth inhibition of PfATP4-mutant resistant parasites – NITD609-resistant line, SYBR Green, dry powder, dose response (AID 1159571); type: functional, cell-based;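 also: parasites synchronized at ring stage by sorbitol before testing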
[10] = Dd2 malaria parasite growth inhibition potency – SYBR Green, dry powder samples, dose response (AID 1159566); type: functional, cell-based;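 also: potency for growth inhibition with lower SYBR green DNA signal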
[11] = Dd2 parasite growth inhibition in erythrocytes – SYBR Green, dry powder samples, set 9, dose response (AID 1159568); type: functional, cell-based
[12] = T. cruzi growth inhibition in host cells, dose response, cell-based, plate reader, dry powder, set 2 (AID 652275); type: functional
[13] = growth inhibition of yeast DHODH-expressing 3D7 parasites – SYBR Green, dry powder samples, dose response (AID 1159570); type: functional, cell-based;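 also: parasite growth measured after 72 hours of compound exposure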
[14] = M. tuberculosis H37Rv growth inhibitors, H37Rv strain (AID 1626); type: functional
[15] = biological target: Solute carrier family 12 member 2/member 5 (Homo sapiens, UniProt P55011+Q9H2X9); experiment: KCC2 and NKCC1 inhibition by rubidium flux, cell-based, NKCC1 counter-screen (AID 1734); type: functional, HEK293
[16] = biological target: T1, Low molecular weight phosphotyrosine protein phosphatase (Homo sapiens, UniProt P24666); experiment: inhibition of LMPTP-A enzymatic activity – biochemical, OMFP substrate, fluorescence intensity, set 2, dose response (AID 743307); type: functional
T1 sequence (P24666 whole entry): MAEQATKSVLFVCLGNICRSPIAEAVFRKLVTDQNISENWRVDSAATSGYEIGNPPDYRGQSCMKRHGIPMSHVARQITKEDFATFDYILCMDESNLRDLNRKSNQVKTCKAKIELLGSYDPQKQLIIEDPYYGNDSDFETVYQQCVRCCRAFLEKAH

[17] = biological target: T1, Low molecular weight phosphotyrosine protein phosphatase; experiment: inhibition of human LMPTP enzyme activity – biochemical, absorbance, pNPP substrate, LMPTP-A isoform, set 2, orthogonal assay, dose response (AID 743308); type: functional

Question: For `COc1cccc(C#Cc2ccc([C@@H]3[C@@H](CO)N4C(=O)CN(C(=O)Cc5ccccc5)C[C@@H]34)cc2)c1`, which AC50 [1] is on record?
Answer: Its AC50 is 4.88 µM (active).

Question: For `Cc1ccc(-c2cc(-c3ccccc3)cc(-c3ccccc3)[n+]2-c2ccccc2C(=O)O)cc1.[O-][Cl+3]([O-])([O-])[O-]`, which IC50 [2] is on record?
Answer: Its IC50 is 18.9 µM (inactive).

Question: What about the EC50 [3] of the same compound?
Answer: The EC50 was 3.23 µM (inconclusive).

Question: And the EC50 [4]?
Answer: The EC50 was > 160 µM (inactive).

Question: For `O=C(NCCN1CCN(c2ccccc2)CC1)C1CCN(S(=O)(=O)c2cccc3nonc23)CC1`, which IC50 (Protein Tat) is on record?
Answer: The IC50 was > 100 µM (active).

Question: What does the source list for `Cc1ccc(CCn2c3c(c4cc(Cl)ccc42)CN(C)CC3)cn1` [DORASTINE]?
Answer: IC50 [5]: > 10 µM (inactive); IC50 [6]: > 10 µM (inactive); IC50 (cells): > 33.3 µM (inactive); IC50 [7]: 4.2 µM (active)

Question: With `CC(C)(C)[S+]([O-])N1Cc2cc(C(=O)NCc3ccc4c(c3)OCO4)nc(-c3cccc(-c4cc5ccccc5o4)c3)c2[C@H]1CCO` (some centres undefined) as the compound, how does the AC50 [8] read?
Answer: Its AC50 is 1.51 µM (active).

Question: What about the AC50 [9] of the same compound?
Answer: Its AC50 is 1.21 µM (active).

Question: And the AC50 [10]?
Answer: The AC50 was 1.16 µM (active).

Question: What about the AC50 [11] of the same compound?
Answer: Its AC50 is 2.2 µM (active).

Question: What about the AC50 [12] of the same compound?
Answer: The AC50 was 0.361 µM (active).

Question: And the AC50 [13]?
Answer: Its AC50 is 1.46 µM (active).

Question: What does the source list for `O=C(OCC(=O)N1CCN(C(=O)c2ccco2)CC1)c1sc2ccccc2c1Cl`?
Answer: IC50 [14]: > 100 µM (active); IC50 [15]: 24 µM (active)

Question: Which IC50 [16] does the source give for `COc1ccccc1-c1cc(NCCCN2CCCCC2)c2ccccc2n1` here?
Answer: The IC50 was 2.87 µM (active).

Question: And the IC50 [17]?
Answer: Its IC50 is 7.13 µM (active).

— ChEMBL document CHEMBL1201862, “PubChem BioAssay data set” (2004)
